Measured values: publication PMC11359702, “Synthesis and Biochemical Evaluation of Ethanoanthracenes and Related Compounds: Antiproliferative and Pro-Apoptotic Effects in Chronic Lymphocytic Leukemia (CLL)” (Pharmaceuticals, 2024)
Values joined by “and” are separate entries in the source; they are usually repeats but may differ in a detail not shown here. Equal entries are not always repeated. Where two headings read alike, the source gives them in different places.

What was measured:
[1] = system: COLO205; test: NCI-60 five-dose assay; type: cell-based, human
Experimental: (§1) A number of our most promising compounds identified through preliminary cell viability testing (23c, 23d, 23f, 23h, 23l, 23m, 23n, 23o, 24f, 24l, 25n and 26n) were selected for NCI drug screening in the 60-cell-line panel. The panel includes nine subcategories based on cancer tissue types, which include leukemia, ovarian, central nervous system, breast, lung, prostate, skin, renal and colon cancer. The compounds were initially assessed in a one-dose assay at a fixed treatment concentration of 10 µM. The compounds selected for further investigation were progressed to a five-dose assay across the concentration ranges of 0.01, 0.1, 1, 10 and 100 µM [72]. The endpoints assessed in the screening protocol were GI50, TGI and LC50 [72].

[2] = system: CCRF-CEM; test: NCI-60 five-dose assay; type: cell-based, human
[3] = system: K-562; test: NCI-60 five-dose assay; type: cell-based, human
[4] = system: MOLT-4; test: NCI-60 five-dose assay; type: cell-based, human
[5] = system: RPMI-8226; test: NCI-60 five-dose assay; type: cell-based, human
[6] = system: SR; test: NCI-60 five-dose assay; type: cell-based, human
[7] = system: NCI 60 cancer cell line panel; test: NCI-60 five-dose assay, full-panel means; type: cell-based
Procedure, shortened: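 Five-dose format: 0.01, 0.1, 1, 10, 100 µM; entry via one-dose prescreen (10 µM). Readouts GI50, TGI, LC50. NCI-60 panel.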

[8] = system: leukemia cell panel; test: NCI-60 five-dose assay, leukemia cell panel mean; type: cell-based, human; details: mean across the six leukemia cell lines
[9] = system: melanoma cell lines; test: NCI-60 five-dose assay, melanoma cell lines; type: cell-based, human; details: range over melanoma cell lines
Experimental: as §1

[10] = system: breast cancer cell lines; test: NCI-60 five-dose assay, breast cancer cell lines; type: cell-based, human; details: range over breast cancer cell lines
Experimental: as §1

[11] = system: HG-3 and PGA-1 cell lines; test: alamarBlue cell viability assay, mean of both CLL cell lines; type: cell-based, human; details: mean of HG-3 and PGA-1
[12] = system: HG-3 cells; test: LDH cytotoxicity assay (CytoTox 96); type: cell-based; details: HG-3, 10 µM, 24 h, lysis solution = 100%
Text: (§2) The lactate dehydrogenase (LDH) assay is used to assess the membrane integrity of cells as a function of the cytoplasmic LDH released. The loss of cell membrane integrity (due to cytotoxic insult) is detectable through LDH release into the cell growth medium. The assay is initiated via the reduction in cellular co-factor NAD^+ to NADH catalyzed via the LDH enzyme. Newly formed NADH catalyzes the acidic reduction in iodonitrotetrazolium chloride (INT) to the highly colored formazan (red) (mediated via the diaphorase enzyme). […] At the 10-µM treatment concentration, mild to moderate cytotoxicity (19–47%) was observed. […] Cytotoxicity remained low to mild at 1 µM (4–18%) with 23a displaying the lowest LDH release (4%).
(§3) Following the treatment of the HG-3 and PGA-1 cells at 10 µM for 24 hr, the amount of LDH released was determined using an LDH assay kit from Promega (G1780). Cell lysis solution = 100% cell lysis and LDH release). Data are presented as % cell death at a concentration of 10 µM. Cells were treated with ethanoanthracene compounds 20a, 20f, 23a and 25n (1 µM and 10 µM) for 24 h. Values are shown as the mean of three independent experiments.
(§4) The cytotoxicity of the selected compounds 20a, 20f, 23a and 25n was determined using the CytoTox 96 non-radioactive cytotoxicity assay (Promega Corporation; 2800 Woods Hollow Road, Madison, WI, USA). CLL cells HG-3 and PGA-1 were incubated for 24 h and then treated with the selected compounds 20a, 20f, 23a and 25n at 10-µM and 1-µM concentrations, following the protocol outlined above in the cell viability assay. After 24 h, the lysis solution (10×) (20 µL) was added, and the cells were incubated for a further 1 h to ensure complete cell death. Supernatant (50 µL) was removed from each well and transferred to a clean 96-well plate. “Substrate mix” (50 µL) was added, and the plate was stored in the dark at 20 °C for 30 min. “Stop solution” (50 µL) was added to each well, and the absorbance at 490 nm was recorded using a Dynatech MR5000 plate reader; the % cell death was determined relative to the control cell lysis solution.

[13] = system: PGA-1 cells; test: LDH cytotoxicity assay (CytoTox 96); type: cell-based; details: 24 h
Text: as §2, §3, §4

[14] = system: HG-3 cells; test: Annexin V/PI apoptosis assay (FACS); type: cell-based, human
Experimental: (§5) The pro-apoptotic effects of selected nitrovinylethanoanthracene compounds 20a and 20f and anthracene chalcones 23a and 25n in HG-3 cells and PGA-1 cells was then investigated using FITC (fluorescein isothiocyanate), Annexin V/PI (propidium iodide) and FACS (fluorescence-activated cell sorting) analysis to characterize the mode of cellular death induced. Apoptosis was assessed as % total apoptosis (total of early (Q3) and late (Q2) apoptosis).
(§6) CLL cells PGA-1 and HG-3 (1 × 10^6 cells/mL) were treated at 37 °C with either the vehicle (1% (v/v) DMSO) or the ethanoanthracene compounds 20a, 20f, 23a and 25n (10 µM, 5 µM and 1 µM) for 48 h, following the protocol previously described. The cells were then harvested via centrifugation at 400× g in a temperature-controlled Sorvall centrifuge. The cells were rinsed with Ca^2+ Annexin-V-binding buffer (0.1 M HEPES, pH 7.4; 0.14 M NaCl; 25 mM CaCl2, 0.5 mL). The samples were resuspended in FITC Annexin V (diluted 1:33 in Ca^2+ Annexin V-binding buffer, 50 µL) and incubated for 10 min (on ice and protected from light). The samples were washed with Annexin-V-binding buffer and resuspended in a PI solution (0.5 µg/mL, 500 µL) and analyzed within 1 h using a BD Accuri C6 flow cytometer counting 10,000 cells using the FlowJo software Version 10 (FlowJo LLC, Ashland, OR, USA).

[15] = system: PGA-1 cells; test: Annexin V/PI apoptosis assay (FACS); type: cell-based, human; details: PGA-1, 10 µM
Experimental: as §5, §6

[16] = system: HG-3 cells; test: alamarBlue cell viability assay; details: HG-3, 24 h; for IC50: read-out: HG-3 IC50; for viability at 10 µM: read-out: cell viability, HG-3, 10 µM, 24 h, vehicle = 100%
[17] = system: PGA-1 cells; test: alamarBlue cell viability assay; details: for IC50: read-out: PGA-1 IC50
[18] = system: SNB-75; test: NCI-60 five-dose assay; type: cell-based, human
Experimental: as §1

[19] = Homo sapiens, RPMI-8226, RPMI-8226
[20] = Homo sapiens, mean over NCI 60 cell line panel, read-out: Mean GI50 (MID GI50, full-panel mean-graph mid-point)
[21] = Homo sapiens, mean over NCI 60 cell line panel, read-out: Mean LC50 (MID LC50)
[22] = Homo sapiens, 24 h, read-out: cell viability
[23] = mean over NCI 60 cell line panel

Row | Structure (SMILES) | GI50 ([1]; Homo sapiens, COLO 205) [nM] | GI50 [2] [nM] | GI50 ([3]; Homo sapiens, K562, K-562) [nM] | GI50 ([3]; K-562) [nM] | GI50 ([4]; Homo sapiens, MOLT-4, MOLT-4) [nM] | GI50 ([4]; MOLT-4) [nM] | GI50 [5, 19] [nM] | GI50 ([5]; RPMI-8226) [nM] | GI50 [6] [nM] | GI50 [7, 20] [nM] | CC50 [7, 21] [nM] | GI50 ([8]; Homo sapiens) [nM] | GI50 ([9]; Homo sapiens) [nM] | GI50 ([10]; Homo sapiens) [nM] | IC50 ([11]; Homo sapiens, CLL cell) [nM] | LDH release (cytotoxicity, % cell death) [12] [%] | LDH release (cytotoxicity, % cell death) ([13]; PGA-1, 10 µM) [%] | IC50 ([16]; Homo sapiens) [nM] | IC50 ([17]; Homo sapiens, 24 h) [nM] | viability at 10 µM [17, 22] [%] | also measured
1 | O=C(C=CC12c3ccccc3C(c3ccccc31)C1C(=O)N(c3ccc(Cl)cc3)C(=O)C12)c1ccccn1 (stereo not shown) [Compound 25n, (E)-13-(4-Chlorophenyl)-9-(3-oxo-3-(pyridin-2-yl)prop-1-en-1-yl)-9,10-dihydro-9,10-[3,4]epipyrroloanthracene-12,14-dione] | 1160 | 321 | 290 | 293 | 320 | 366 | 250 | 252 | 284 | 245 | 18600 | 290 | 194 to 1080 | 295 to 627 | 1090 | 47 | 15 | 1310 | 870 | 7 | GI50 ([2]; Homo sapiens): 320 nM; GI50 ([6]; Homo sapiens): 280 nM; GI50 ([7]; Homo sapiens, heatmap Figure 8, concentration in molar, read-out: Log 10 GI-50 Mean (converted)): 389 nM; IC50 ([7]; Homo sapiens, heatmap Figure 8, concentration in molar, read-out: Log 10 IC-50 Mean (converted)): 741 nM; CC50 ([7]; Homo sapiens, heatmap Figure 8, concentration in molar, read-out: Log 10 LC-50 Mean (converted)): 41700 nM; total apoptosis (early Q3 + late Q2) ([14]; HG-3, 1 µM): 37%; total apoptosis (early Q3 + late Q2) ([14]; HG-3, 10 µM): 82–95% and 93%; total apoptosis (early Q3 + late Q2) [15]: 87–97% and 87%; viability at 1 µM ([16]; Homo sapiens, read-out: cell viability, HG-3, 1 µM, 24 h, vehicle = 100%): 30%; viability at 10 µM ([16]; Homo sapiens): 2%; viability at 1 µM [17, 22]: 25%
2 | O=C(/C=C/C12c3ccccc3C(c3ccccc31)C1C(=O)NC(=O)C12)c1ccc(F)cc1 (racemic) [Compound 23h] | 1790 |  | 1420 | 1550 | 460 | 759 | 1620 | 1160 |  | 1700 | 14400 | 1000 | 1600 to 2480 | 885 to 1880 | 3770 |  |  | 4650 | 2880 | 9 | GI50 ([18]; Homo sapiens): 1370 nM; Mean TGI (MID TGI, total growth inhibition) [7, 23]: 4265 nM
3 | O=C(/C=C/C12c3ccccc3C(c3ccccc31)C1C(=O)NC(=O)C12)c1ccc(Cl)cc1 (racemic) [Compound 23l, (E)-9-(3-(4-Chlorophenyl)-3-oxoprop-1-en-1-yl)-9,10-dihydro-9,10-[3,4]epipyrroloanthracene-12,14-dione] |  | 1660 |  | 1990 |  | 1700 |  | 1660 | 2150 |  |  |  |  |  |  |  |  |  |  |  | GI50 [1]: 1910 nM; GI50 [18]: 1100 nM; CC50 [7]: 13200 nM; Mean TGI (MID TGI, total growth inhibition) [7, 23]: 4265 nM; GI50 ([7]; mean over NCI 60 cell line panel, read-out: Mean GI50 (MID GI50, full-panel mean-graph mid-point)): 1620 nM; GI50 [8]: 1770 nM; GI50 [9]: 1400 to 1810 nM; GI50 [10]: 1340 to 1940 nM; IC50 [11]: 2720 nM; IC50 [16]: 2230 nM; IC50 ([17]; PGA-1, 24 h): 3210 nM
4 | O=C(C=CC12c3ccccc3C(c3ccccc31)C1C(=O)NC(=O)C12)c1ccc(Br)cc1 (stereo not shown) [Compound 23a, 9-(E)-3-(4-Bromophenyl)-3-oxoprop-1-en-1-yl)-9,10-dihydro-9,10-[3,4]epipyrroloanthracene-12,14-dione] |  |  |  |  |  |  |  |  |  |  |  |  |  |  | 2330 | 25 | 23 | 2690 | 1970 | 3 | LDH release (cytotoxicity, % cell death) ([13]; PGA-1, 1 µM): 4%; total apoptosis (early Q3 + late Q2) ([14]; HG-3, 1 µM): 33%; total apoptosis (early Q3 + late Q2) ([14]; HG-3, 10 µM): 82–95% and 95%; total apoptosis (early Q3 + late Q2) [15]: 87–97% and 89%; viability at 10 µM ([16]; Homo sapiens): 0.5%
